Consider three compounds from ChEMBL document CHEMBL3393004, “Insights on the role of boron containing moieties in the design of new potent and efficient agonists targeting the β2 adrenoceptor” (Bioorg Med Chem Lett, 2015).

The target of experiment [1] is Beta-2 adrenergic receptor (Cavia porcellus) (UniProt Q8K4Z4). The experiment can be described thus: Agonist activity at adrenergic beta2 receptor in Hartley guinea pig tracheal ring assessed as bronchorelaxation activity against histamine-induced contraction relative to isoproterenol. The conditions noted are these: Trachea.
Sequence of Beta-2 adrenergic receptor (Cavia porcellus) (Q8K4Z4 whole entry, looked up): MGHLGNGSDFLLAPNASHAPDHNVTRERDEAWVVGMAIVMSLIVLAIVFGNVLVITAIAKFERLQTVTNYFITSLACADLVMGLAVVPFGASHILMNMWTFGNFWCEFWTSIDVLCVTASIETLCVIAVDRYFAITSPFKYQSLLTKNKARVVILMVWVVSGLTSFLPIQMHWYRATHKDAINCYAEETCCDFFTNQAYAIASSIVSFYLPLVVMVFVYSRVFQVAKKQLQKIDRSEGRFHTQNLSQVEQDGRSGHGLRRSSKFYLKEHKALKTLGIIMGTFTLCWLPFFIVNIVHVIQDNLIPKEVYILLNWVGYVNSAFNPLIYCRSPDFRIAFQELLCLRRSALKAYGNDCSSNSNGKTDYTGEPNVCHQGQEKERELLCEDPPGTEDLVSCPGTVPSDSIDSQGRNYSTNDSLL
The target of experiment [2] is T1, Beta-2 adrenergic receptor (Cavia porcellus, UniProt Q8K4Z4). The experiment can be described thus: Agonist activity at adrenergic beta2 receptor in Hartley guinea pig tracheal ring at basal tone assessed as bronchorelaxation activity.
T1 sequence (Q8K4Z4 whole entry): as the sequence (Q8K4Z4 whole entry, looked up) above
The target of experiment [3] is T1, Beta-2 adrenergic receptor. The experiment can be described thus: Agonist activity at adrenergic beta2 receptor in Hartley guinea pig tracheal ring assessed as bronchorelaxation activity against histamine-induced contraction. Set-up: species or system Trachea.

Regarding `CC(C)(C)NCC(O)c1ccc(O)c(CO)c1` (configuration not stated), the Efficacy in experiment [1] was 68%.
Usually Kd stands for the concentration at which binding is half-saturated. By EC50 is commonly meant the midpoint of the concentration-response curve. With `CC(C)C[B-]1(O)OCc2cc([C@@H](O)C[NH2+]C(C)(C)C)ccc2O1` (some centres not stated), the Kd in experiment [2] is 5.13 nM. Also, in experiment [3], the concentration for a half-maximal effect (EC50) is ≤ 280 nM and the Kd is 28.2 nM. In addition, in experiment [1], the Efficacy worked out at 94%.
Take `CC(C)NCC(O)c1ccc(O)c(O)c1` (configuration not stated) [ISOPROTERENOL]: the Kd is 25.1 nM in experiment [2] and 17.8 nM in experiment [3].
